In brackets after ≈: the same amount, converted by molar mass.

We go through one molecule from US20100240603A1, “EXPRESSION INHIBITOR OF NUCLEAR TRANSCRIPTION FACTOR AP-1 AND PHARMACEUTICALS AND PRODUCTS USING THE SAME” (ARKRAY, INC., priority 2006, published 2010).

The subject of assay [1] is nuclear transcription factor AP-1. As to the kind of experiment: nuclear transcription factor AP-1 SEAP reporter assay in TPA-stimulated HeLa cells. Type of assay: cell-based. As to conditions: TPA 4 μg/mL, 24 h. The procedure: (§1) HeLa cells were tripsinized and centrifuged at 4° C. and 1,000 rpm for 3 minutes. The collected Hela cells were seeded on a 30-mm dish so that the density was 2×10^5 cells/well, which served as a test plate. With the test plate being placed at 37° C. for 12 hours in the presence of 5% CO2, the cells were cultured and were then transformed. For the transformation, two types of vectors were transfected into the aforementioned cells using a transformation reagent (trade name: Effectene Transfection Reagent, QIAGEN). The vectors used herein were pAP-1 (PMA)-SEAP (trade name) (CLONTECH) (0.4 μg) and pLuc-control (trade name) (CLONTECH) (0.02 μg). The cells transfected with both of the vectors were cultured at 37° C. for 16 hours in the presence of 5% CO2, and then the cultured cells were detached from the aforementioned test plate using trypsin. The detached cells were dispensed into a 96-well plate so that 0.2×10^4 cells were contained in each well. The cells thus dispensed were cultured for two hours. […] The medium thus collected was evaluated for the secreated alkaline phosphatase (SEAP) activity based on the activity of the nuclear transcription factor AP-1 contained in the medium, using a kit (trade name: Great EscAPe SEAP kit, CLONTECK). […]

The next assay relates to NF-κB. As to the kind of experiment: NF-κB SEAP reporter assay in TNF-alpha-stimulated HeLa cells. Type of assay: cell-based. As to conditions: TNF-alpha 40 ng/mL, 24 h. The procedure: as §1, with “pNF-κB-SEAP” for “pAP-1 (PMA)-SEAP”, “NF-κB” for “the nuclear transcription factor AP-1”, “medium” for “medium,”

With `CC(O)(CC(=O)O)CC(=O)OCC1OC(Oc2cc(O)c3c(=O)cc(-c4ccc(O)cc4)oc3c2)C(O)C(O)C1O` (stereo not shown) [chamaemeloside, apigenin 7-glucoside-6″-(3′″-hydroxy-3′″-methyl-glutarate)], the “expression of the nuclear transcription factor AP-1 (FIG. 2)” value in assay [1] (HeLa cells, 10, 5.0, 2.5, 1.0 μg/mL) was “suppressed (inhibited) in a concentration-dependent manner”. Further, the IC50 is 5 µg/mL (≈ 8.67 µM) in assay [1] (Homo sapiens, HeLa cells transfected with pAP-1 (PMA)-SEAP and pLuc-control, corrected by luciferase activity, read-out: IC50 of inhibition of nuclear transcription factor AP-1 expression (SEAP activity)); 80 µg/mL (≈ 139 µM) with NF-κB (Homo sapiens, HeLa cells transfected with pNF-κB-SEAP and pLuc-control, corrected by luciferase activity, read-out: IC50 of inhibition of NF-κB expression (SEAP activity)). Moreover, the “expression of NF-κB (FIG. 3)” value in the assay on NF-κB (HeLa cells) was “inhibited the expression of NF-κB in a concentration-dependent manner”.
